Source: the METLIN SMRT retention time set (Domingo-Almenara et al. 2019)

Assay: gradient 5% acetonitrile 3 min, to 50% in 2 min, to 85% in 15 min, held 3 min, 100 µL/min
Settings: column: Zorbax Extend-C18 2.1 x 50 mm; eluents: water / acetonitrile, 0.1% formic acid
Procedure, shortened: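 Pure standards were run in mixtures of ~100 molecules by HPLC coupled to a quadrupole time-of-flight mass spectrometer. The column was a Zorbax Extend-C18 (2.1 × 50 mm, 1.8 μm) at 100 μL/min, with water and acetonitrile each containing 0.1% formic acid, in positive and negative ionization mode. Dead and dwell volumes were 40 μL and 900 μL. Retention time was taken from computationally picked adduct peaks, each manually inspected, with data collected over 3 months.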

| Structure (SMILES) | RP-LC retention time [s] |
| --- | --- |
| COC1C(=O)N(C2CCN(C(=O)c3cnccn3)CC2)C12CCOCC2 (configuration not stated) | 555 |
| COC1C(=O)N(c2cccc(F)c2)C12CCN(C(=O)C1(c3ccccc3)CC1)CC2 (configuration not stated) | 994 |
| COc1ccccc1/C=C/c1nc(C#N)c(NCCCN(C)C)o1 | 658 |
| O=C(Nc1nc2ccccc2s1)C1CCCN(c2ncnc3c2nc2n3CCCCC2)C1 (configuration not stated) | 909 |
| Cc1nc(OCC(=O)NCc2ccc(N(C)C)cc2)c2c(C)c(C)oc2n1 | 653 |
| CCOCCCNC(=O)c1c(N2CCCC2=O)c2cc(OC)ccc2n1CC | 761 |
| Cc1sc(NC(=O)c2cccs2)nc1-c1ccc2c(c1)N(C)C(=O)CO2 | 942 |
| Cc1ccc(-n2ncc3c(NCCCN(C)C)ncnc32)cc1C | 625 |
| O=C(Cc1ccsc1)NC1CCc2nnc(C3CC3)n2CC1 (configuration not stated) | 594 |
| Cc1c(C(=O)NC2CCCC2)cnn1-c1cc(-c2nc(C3CC3)no2)ccn1 | 887 |
| Cc1ccc2[nH]c(=O)nc(-c3ccccc3)c2c1 | 648 |
| CCn1nccc1C(=O)N1CCCC1c1ccccc1F (configuration not stated) | 840 |
| CN1c2ccccc2C(=O)NC12CCN(C(=O)NCc1ccc(F)cc1)CC2 | 724 |
| Cc1nn(C(C)C(=O)NC2CCC(C)CC2)c(=O)c2nn(-c3ccccc3)c(C)c12 (configuration not stated) | 962 |
| O=C(NCc1cccs1)c1ccc2c(c1)OCCCO2 | 791 |
| C=CCn1c(=O)c2ccccc2n(Cc2nc(-c3cc(OC)c(OC)c(OC)c3)no2)c1=O | 948 |
| CCc1ccc(CNC(=O)Cn2cc(-c3nnco3)c3ccccc32)cc1 | 866 |
| Cc1[nH]c2ccccc2c1CCNCc1ccc(/C=C/C(=O)NO)cc1 | 659 |
| Cc1cc(C)cc(NC(=O)C2CCN(S(=O)(=O)c3cc(-c4noc(C5CC5)n4)cs3)CC2)c1 | 1020 |
| COc1ccc(NC(=O)N2CCC(C)(C(=O)NCc3ccc4c(c3)OCO4)CC2)c(OC)c1 | 720 |
| CCOc1ccc(N2C(=O)C3N=NN(Cc4nc(-c5ccc6c(c5)OCO6)no4)C3C2=O)cc1 (configuration not stated) | 963 |
| O=C(NC1CCCC1)c1nnc(-c2ccc(S(=O)(=O)N3CCOCC3)cc2)o1 | 804 |
| Cn1cnnc1SCC(=O)Nc1ccc(F)cc1 | 603 |

| Structure (SMILES) | RP-LC retention time [s] |
| --- | --- |
| CCc1nnc(-c2nnc(N(CC)CC)c3ccccc23)o1 | 859 |
| CCOc1ccc(CNS(=O)(=O)c2cc(C(=O)N3CCCC3)n(C)c2C)cc1 | 771 |
| Cc1ccc(-c2nc(C3CC(=O)N(c4ccc(F)c(Cl)c4)C3)no2)cc1 (configuration not stated) | 1160 |
| O=C(Nc1nccs1)C1CCN(C(=O)C2COc3ccccc3O2)CC1 (configuration not stated) | 716 |
| CC(C)c1cc(C(=O)NC2CC2)n[nH]1 | 625 |
| CC1(CNC(=O)c2cccc(Br)c2)CCOCC1 | 797 |
| CCCCN1CCN(C(=O)c2cnc(-c3ccccc3)nc2-c2ccncc2)CC1 | 638 |
| Cc1ccc(C)c(NC(=O)CSc2ccc(N3CCCC(C(=O)NC4CC4)C3)nn2)c1 (configuration not stated) | 681 |
| O=C(NCCC1=CCCCC1)C(=O)NCC1(c2cccs2)CCCC1 | 1240 |
| COc1ccc2nc(C(=O)NCc3ccc(C)cc3)cn2n1 | 843 |
| CCn1c(N2CCCC(C(=O)NCCOC)C2)cc(=O)n(C)c1=O (configuration not stated) | 646 |
| O=C(NCCOc1ccc(F)cc1)C1CN(C(=O)c2cccs2)C1 | 691 |
| CCc1sc(N)nc1-c1ccc(OC)cc1 | 668 |
| CC(C)c1cc(C(=O)Nc2ccc(F)c(Cl)c2)nc2ccnn12 | 1210 |
| O=C(CN1C(=O)C2CCCCC2C1=O)N1CCN(Cc2ccc3c(c2)OCO3)CC1 (configuration not stated) | 603 |
| COc1ccc(-c2nc(C3CC(=O)N(c4ccc(OC)c(OC)c4)C3)no2)c(C)c1 (configuration not stated) | 911 |
| O=C(NCc1ccccc1F)C1CCc2nc(N3CCOCC3)ncc2C1 (configuration not stated) | 731 |
| Cc1ccccc1C(=O)NCCc1c[nH]c2ccc(Cl)cc12 | 889 |
| CCN1CCN(c2cc(C)c3cc(NC(=S)N4CCC(Cc5ccccc5)CC4)ccc3n2)CC1 | 699 |
| COc1cc([N+](=O)[O-])ccc1NC(=O)CCS(=O)(=O)c1ccc(Cl)cc1 | 854 |
| Cc1cc(C)nc(Nc2nc(CC(=O)NCCc3ccc(S(N)(=O)=O)cc3)cs2)n1 | 604 |
| CCN(CC)C(C)CN1c2ccccc2Sc2ccccc21 (configuration not stated) | 813 |
| O=C(Nc1cccc(Cl)c1)C1CCCN(S(=O)(=O)Cc2ccccc2)C1 (configuration not stated) | 1030 |

| Structure (SMILES) | RP-LC retention time [s] |
| --- | --- |
| NC(=O)CCSc1nnc(SCC(=O)c2ccccc2)s1 | 675 |
| O=S(=O)(c1cccc(C(F)(F)F)c1)N1CCN(c2ccc(-n3ccnc3)nn2)CC1 | 601 |
| CCc1nc(NCc2ccccn2)ncc1C(=O)O | 557 |
| CC(C)C(=O)Nc1ccc(-n2cnc(C(=O)NCc3ccc(F)cc3)c2)nc1 | 753 |
| CCOC(=O)c1noc2nc(C)nc(NCCCN3CCN(c4ccccc4)CC3)c12 | 668 |
| Cc1ccc(Cl)cc1NS(=O)(=O)c1cc(-c2nc(C(C)C)cs2)cs1 | 1230 |
| Cc1ccccc1-c1nc2cnccn2c1NCCC(=O)NCc1cccs1 | 649 |
| COc1ccc(NC(=O)Cn2cccc2-c2nnc(-c3ccccc3)o2)cc1 | 894 |
| Cc1ccc(C(=O)N2CCC3(CC2)N=C(c2ccc(Cl)cc2)NO3)s1 | 901 |
| CN(CC1(C)CCOCC1)S(=O)(=O)c1cccc(F)c1 | 895 |
| CC(C)c1ccc2c(c1)-c1ccccc1S(=O)(=O)N2CC(=O)NCc1ccncc1 | 699 |
| CCn1cc(S(=O)(=O)N2CCC(c3noc(-c4cccnc4)n3)C2)cn1 (configuration not stated) | 710 |
| CCCNS(=O)(=O)c1ccc(Cl)c(-c2nnc(-c3ccccc3)o2)c1 | 1010 |
| CCC(=O)N1N=C(c2cccc(NS(=O)(=O)CC)c2)CC1c1cccc([N+](=O)[O-])c1 (configuration not stated) | 651 |
| C=C1C(=O)O[C@@H]2/C=C(\C)CCC=C(C)CC[C@@H]12 | 1090 |
| COc1ccccc1OCC1c2ccsc2CCN1C(=O)CN(CC1CC1)C(=O)C1CC1 (configuration not stated) | 928 |
| O=C(NCc1ccccc1C(F)(F)F)C1CCN(c2nnc(-c3ccccc3)o2)CC1 | 892 |
| Cc1ccc(Cn2cc(-c3ccncc3)cc2C(=O)NC(C)c2ccccn2)cc1 (configuration not stated) | 620 |
| Cn1ncc2c3ccccc3n(CCCC(=O)NCCc3ccccc3)c2c1=O | 845 |
| COc1ccc(CCN2C(=O)CC(Sc3ccccc3C(=O)O)C2=O)cc1OC (configuration not stated) | 703 |
| Cc1ccn2c(NC(=O)c3ccccc3)c(-c3ccccc3)nc2c1 | 646 |
| CC(C)Cc1ccc(S(=O)(=O)N2CCC(C(=O)NCc3csc(-c4ccccc4)n3)CC2)cc1 | 1140 |
| O=C(Nc1nnc(C2CC(=O)N(c3ccccc3)C2)o1)c1ccc(F)cc1 (configuration not stated) | 708 |

| Structure (SMILES) | RP-LC retention time [s] |
| --- | --- |
| COC(=O)CNC(=O)N1CCCCCC1c1ccc(Cl)cc1 (configuration not stated) | 870 |
| COc1cccc(NC(=O)CN2C(=O)CC(c3cccs3)=Nc3ccccc32)c1 | 898 |
| COc1cccc(-c2nnc(Cc3nc(-c4ccncc4)no3)o2)c1 | 739 |
| O=C(COc1ccccc1)N1CC(n2cnnc2C2CC2)C1 | 620 |
| Cc1nc(CC(=O)NCCc2c[nH]c3ccc(Cl)cc23)cs1 | 754 |
| Cc1nc(Nc2ccc(Cl)cn2)sc1C(=O)NCCN1CCCCC1 | 637 |
| COc1cc(CNC(=O)c2ccc3c(c2)N(C)C(=O)C2CCCCN32)cc(OC)c1OC (configuration not stated) | 790 |
| COc1cc(CCC(=O)N2CCNc3ccccc3C2)cc(OC)c1OC | 710 |
| CC(C(=O)NCc1cccs1)S(=O)(=O)c1ccc2c(c1)S(=O)(=O)N=CN2 (configuration not stated) | 628 |
| O=C(NCCCn1cccn1)C1CCc2nc(N3CCCC3)ncc2C1 (configuration not stated) | 575 |
| CCCCNC(=O)C1CC(=O)N(c2n[nH]c3cccc(F)c23)C1 (configuration not stated) | 660 |
| CCc1ccc(Oc2cc(N3CCC(C(=O)NCC(C)c4ccccc4)CC3)ncn2)cc1 (configuration not stated) | 1090 |
| COCCCn1c(=O)c2ccccc2n(Cc2nc(-c3ccc4c(c3)OCO4)no2)c1=O | 954 |
| CCc1ccc2nc(Nc3ncc4c(n3)CC(c3ccc(F)cc3)CC4=O)nc(C)c2c1 (configuration not stated) | 835 |
| Oc1ccc2c3c1O[C@H]1c4oc5ccccc5c4C[C@@]4(O)C(C2)N(CC2CC2)CCC314 (some centres not stated) | 702 |
| COc1ccc(CNC(=O)CS(=O)(=O)c2cccs2)cc1 | 676 |
| Cc1nc2cc(-c3noc(COc4ccccc4)n3)ccc2n(C2CCCC2)c1=O | 1200 |
| Cc1ccc(C)c(-c2cc(C(N)=O)[nH]n2)c1 | 695 |
| COc1ccc(-c2cc3c4nnc(CCC(=O)N5CCC(C(N)=O)CC5)n4ccn3n2)cc1 | 613 |
| CNC(=O)Cn1nc(C2CCN(C(=O)c3nccc4ccccc34)CC2)c2c1CCOC2 | 609 |
| O=C(Nc1ccccc1)Nc1c(-c2ccc(F)cc2)nc2ccccn12 | 662 |
| CC(C)(C)C(=O)NCCN1C(=O)C2(CCCCC2)C1c1ccccc1 (configuration not stated) | 903 |
| Cc1cccc(CNC(=O)CN2CCN(Cc3ccc(F)cc3)C2=O)c1 | 831 |
